Common to all, as to assay type: cell-based, human
The test system of one data set is HeLa cells. The data set can be described thus: Cell cycle assay in HeLa cells. Particulars: HeLa cells, 150 nM oligomeric compound.
The subject of the next data set is A549 cells. As to the kind of experiment: Cell cycle assay in A549 cells. Particulars: A549 cells, 24 hours, relative to the untreated control cells in that phase. The protocol:
In accordance with the present invention, certain oligomeric compounds targeting miRNAs were selected for dose response studies. Using the cell cycle assay described above, the cell cycle profiles of HeLa or A549 cells treated with varying concentrations of oligomeric compounds of the present invention were assessed.
Concomittent decreases in the percentage of cells in G1-phase of the cell cycle and increases in the percentage of hypodiploid (subG1) cells were also observed.
In a further study, A549 cells were treated with 25-, 50-, 100- or 150 nM of the oligomeric compounds ISIS Numbers 338637 (SEQ ID NO: 464) targeted against mir-96, and ISIS 338769 (SEQ ID NO: 596) targeted against mir-130b, ISIS 338836 (SEQ ID NO: 663) targeted against mir-23a, and ISIS 340350 (SEQ ID NO: 855) targeted against mir-95 (Mourelatos). Cells treated with increasing concentrations of oligomeric compounds were compared to untreated cells, to assess the dose-responsiveness of the observed delay or arrest. The random-mer ISIS 29848 was used as a negative control. Cells were prepared for flow cytometry 24-hours after oligonucleotide treatment. Results of these dose response studies are shown in Table 34, where data are expressed as percentage of cells in each phase relative to the untreated control cells in that phase.

A further data set concerns T47Dp53 cells. The data set can be described thus: Cell cycle assay in T47Dp53 cells. Particulars: 150 nM, 48 hours, relative to untreated control. Here is the method:
In further studies, additional cell lines were treated with oligomeric compounds targeted against miRNAs to assess the effects of each oligomeric compound on cell cycling. BJ, B16, T47D, and HeLa cells were cultured and transfected as described above. […] T47Dp53 cells are T47D cells that have been transfected with and selected for maintenance of a plasmid that expresses a wildtype copy of the p53 gene (for example, pCMV-p53; Clontech, Palo Alto, Calif.), using standard laboratory procedures. BJ cells were treated with 200 nM of each oligomeric compound, and T47D, T47Dp53, HeLa, and B16 cells were treated with 150 nM of each oligomeric compound. The human foreskin fibroblast BJ cell line represents a non-cancer cell line, while HeLa, T47D, T47Dp53 cells and the mouse melanoma cell line B16-F10 represent cancerous cell lines. For comparison, oligomeric compounds ISIS 183891 (SEQ ID NO: 847) and ISIS 285717 ([…]; herein incorporated as SEQ ID NO: 857), both targeting the kinesin-like 1/Eg5 mRNA, involved in cell cycling, were used as positive controls. The random-mer ISIS 29848 was used as a negative control. Additionally, the oligomeric compounds ISIS Number 25690 ([…]; herein incorporated as SEQ ID NO: 858) and ISIS Number 25691 ([…]; herein incorporated as SEQ ID NO: 859), targeted to nucleotides 3051-3070 and 3085-3104, respectively, of the mRNA encoding the Drosha RNase III (GenBank Accession NM_013235.2, incorporated herein as SEQ ID NO: 860) were also tested. ISIS Number 25690 and ISIS Number 25691 are 5-10-52′-MOE gapmer compounds, 20 nucleotides in length, with phosphorothioate internucleoside linkages throughout the oligomeric compound. All cytidine residues are 5-methylcytidines. Transfections were performed using the methods described herein. Cells were prepared for flow cytometry 48-hours after oligonucleotide treatment. Results of these studies are shown in Table 35, where data are expressed as percentage of cells in each phase relative to the untreated control cells in that phase.

A further data set concerns mir-21 pri-miRNA. As to the kind of experiment: mir-21 pri-miRNA expression in HeLa cells (real-time RT-PCR). Particulars: for levels of the mir-21 pri-miRNA molecule: HeLa; for levels of the mir-21 pri-miRNA molecule / mir-21 pri-miRNA expression % UTC: 100 nM; for mir-21 pri-miRNA levels, dose response: HeLa, 25, 50, 100 and 200 nM; for mir-21 pri-miRNA expression % UTC: HeLa cells, real-time RT-PCR. Here is the method: In one embodiment, the expression of mir-21 (noted to be expressed at high levels in HeLa cells) was assessed in cells treated with oligomeric compounds. Using the transfection methods previously described, HeLa cells were treated with 100 nM of the uniform 2′-MOE oligomeric compound ISIS Number 327917 (SEQ ID NO: 335) targeting the mir-21 mature miRNA. Total RNA was isolated by lysing cells in 1 mL TRIZOL™ (Invitrogen) using the manufacturer's recommended protocols. […] Real-time RT-PCR analysis was also performed on HeLa cells treated with ISIS 327917 using a primer/probe set specific for the mir-21 pri-miRNA molecule [forward primer=ISIS 339332 ([…]; herein incorporated as SEQ ID NO.: 911), reverse primer-ISIS 339333 (TCGACTGGTGTTGCCATGA; herein incorporated as SEQ ID NO.: 912), and probe=ISIS 339334 ([…]; herein incorporated as SEQ ID NO.: 913)]. Total RNA was quantified using RiboGreen™ RNA quantification reagent (Molecular Probes, Inc. Eugene, Oreg.), expression levels observed for the target were normalized to 5.8S rRNA, and values were expressed relative to an untreated control (UTC).
Using the real-time RT-PCR methods, the expression levels of the mir-21 pri-miRNA were compared in HeLa cells treated with this nested series of uniform 2′-MOE oligomeric compounds, targeting and spanning the entire length of the mir-21 pri-miRNA. ISIS Number 358768 (SEQ ID NO: 918) targets a region flanking the predicted 5′ Drosha cleavage site in the mir-21 pri-miRNA. ISIS Number 358777 (SEQ ID NO: 927) targets a region spanning the 3′ Drosha cleavage site in the mir-21 pri-miRNA. ISIS 358779 (SEQ ID NO: 929) targets a region flanking the predicted 3′ Drosha cleavage site in the mir-21 pri-miRNA. Additionally, oligomeric compounds ISIS 327917 (SEQ ID NO: 335), a uniform 2′-MOE compound targeting the mature mir-21 miRNA, and ISIS 345382 ([…]; SEQ ID NO: 335), a 5-10-7 phosphorothioate 2′-MOE gapmer targeting mir-21, were tested for comparison. Oligomeric compound ISIS 327863 ([…]; herein incorporated as SEQ ID NO: 936), a phosphorothioate 5-10-52′-MOE gapmer, was used as scrambled control. […] Total RNA was isolated by lysing cells in 1 mL TRIZOL™ (Invitrogen) using the manufacturer's recommended protocols. real-time RT-PCR analysis was performed using the primer/probe set specific for the mir-21 pri-miRNA molecule [forward primer=ISIS 339332 (SEQ ID NO.: 911), reverse primer-ISIS 339333 (SEQ ID NO.: 912), and probe=ISIS 339334 (SEQ ID NO.: 913)]. Total RNA was quantified using RiboGreen™ RNA quantification reagent (Molecular Probes, Inc. Eugene, Oreg.), expression levels observed for each target were normalized to 5.8S rRNA, and values were expressed relative to the untreated control (UTC). Effects on expression of the mir-21 pri-miRNA molecule resulting from treatment of HeLa cells with these uniform 2′-MOE oligomeric compounds is expressed as a percentage of RNA levels in untreated control cells.

Setting [1] is: 24 hours, relative to untreated control (UTC = 100).
Where [2] appears, read: 48 hours after treatment, relative to untreated control (UTC=100).

The values below come from patent publication US8178506B2, “Oligomeric compounds and compositions for use in modulation of small non-coding RNAs” (Regulus Therapeutics Inc., priority 2003, dated 2012).

Entries after “also recorded” stand apart in the source; their conditions may differ. In the oligonucleotide strings, read from the 5' end, every base follows the letter of its sugar. An asterisk marks phosphorothioate; unmarked linkages are phosphodiester. Other units and linkages are bracketed, terminal groups are in braces. A string of capitals states the bases alone. e = 2'-O-(2-methoxyethyl) (MOE); [5mC] = 5-methylcytosine

As to “338769 (antisense GCTTCCCAGCGGCCTATAGT; all 2'-MOE, all phosphorothioate, methylation of C not given here) [compound 338769]”, in the data set with HeLa cells (setting [1]), the “% cells aneuploid” value came out at 133%, the “% cells in cell cycle phase G1” value stood at 171%, the “% cells in cell cycle phase G2/M” value turned out to be 103% and the “% cells in cell cycle phase S” value stood at 61%. For the same substance, the “% cells in cell cycle phase subG1” value in the data set with HeLa cells (setting [1]) was determined as 188%. In the data set with HeLa cells (setting [2]), the “% cells in cell cycle phase: G1” value turned out to be 76%, the “% cells in cell cycle phase: G2/M” value turned out to be 149%, the “% cells in cell cycle phase: S” value was 116% and the “% cells in cell cycle phase: aneuploid” value worked out at 194%. Also, the “% cells in cell cycle phase: subG1” value in the data set on HeLa cells (setting [2]) amounted to 482%. Further, in the data set on A549 cells (25 nM), the “% cells in cell cycle phase: G1” value is listed as 101%, the “% cells in cell cycle phase: G2/M” value is 114%, the “% cells in cell cycle phase: S” value is reported as 94% and the “% cells in cell cycle phase: aneuploid” value is 101%. In the data set with A549 cells (25 nM), the “% cells in cell cycle phase: subG1” value came out at 62%. Further, in the data set with A549 cells (50 nM), the “% cells in cell cycle phase: G1” value was 114%, the “% cells in cell cycle phase: G2/M” value worked out at 122%, the “% cells in cell cycle phase: S” value was 81% and the “% cells in cell cycle phase: aneuploid” value was 132%. Besides, the “% cells in cell cycle phase: subG1” value in the data set on A549 cells (50 nM) is 82%. In the data set with A549 cells (100 nM), the “% cells in cell cycle phase: G1” value was found to be 124%, the “% cells in cell cycle phase: G2/M” value came to 113%, the “% cells in cell cycle phase: S” value was determined as 75% and the “% cells in cell cycle phase: aneuploid” value was 157%. Moreover, the “% cells in cell cycle phase: subG1” value in the data set with A549 cells (100 nM) came out at 130%. In the data set with A549 cells (150 nM), the “% cells in cell cycle phase: G1” value was found to be 117%, the “% cells in cell cycle phase: G2/M” value stood at 145%, the “% cells in cell cycle phase: S” value amounted to 71% and the “% cells in cell cycle phase: aneuploid” value was 184%. The “% cells in cell cycle phase: subG1” value in the data set with A549 cells (150 nM) is on record as 341%. Further, in the data set on T47Dp53 cells, the “% cells in cell cycle phase G1” value came out at 103%, the “% cells in cell cycle phase G2/M” value is 123%, the “% cells in cell cycle phase S” value was found to be 87% and the “% cells in cell cycle phase aneuploid” value worked out at 87%. In the data set on T47Dp53 cells, the “% cells in cell cycle phase subG1” value is on record as 116%.
Take “ISIS 358779: uniform 2′-MOE PS; SEQ ID NO: 929; region flanking 3′ Drosha cleavage site of mir-21 pri-miRNA (antisense eG*eG*eT*e[5mC]*eA*eG*eA*eT*eG*eA*eA*eA*eG*eA*eT*eA*e[5mC]*e[5mC]*eA*eA) [uniform 2′-MOE PS; region flanking 3′ Drosha cleavage site of mir-21 pri-miRNA]”: in the data set on mir-21 pri-miRNA, the “levels of the mir-21 pri-miRNA molecule” value is recorded as “stimulate an increase in levels of the mir-21 pri-miRNA molecule; also recorded: stimulate the greatest increases in expression of the mir-21 pri-miRNA” and the “mir-21 pri-miRNA levels, dose response” value is “dose-responsive induction of mir-21 pri-miRNA levels”.
As for “358775 (antisense eA*e[5mC]*eA*eG*e[5mC]*e[5mC]*e[5mC]*eA*eT*e[5mC]*eG*eA*e[5mC]*eT*eG*eG*eT*eG*eT*eT) [compound 358775]”, the “mir-21 pri-miRNA expression % UTC” value in the data set with mir-21 pri-miRNA is 222 % UTC.
Still for that read-out and setting: under “358777 (antisense e[5mC]*e[5mC]*eA*eA*eA*eA*eT*eG*eT*e[5mC]*eA*eG*eA*e[5mC]*eA*eG*e[5mC]*e[5mC]*e[5mC]*eA) [compound 358777]” stands 536 % UTC; under “358774 (antisense e[5mC]*eA*eT*e[5mC]*eG*eA*e[5mC]*eT*eG*eG*eT*eG*eT*eT*eG*e[5mC]*e[5mC]*eA*eT*eG) [compound 358774]”, 104 % UTC.
For “ISIS 358768: uniform 2′-MOE PS; SEQ ID NO: 918; region flanking 5′ Drosha cleavage site of mir-21 pri-miRNA (antisense eA*eG*eG*eT*eG*eG*eT*eA*e[5mC]*eA*eG*e[5mC]*e[5mC]*eA*eT*eG*eG*eA*eG*eA) [uniform 2′-MOE PS; region flanking 5′ Drosha cleavage site of mir-21 pri-miRNA]”, in the data set with mir-21 pri-miRNA, the “levels of the mir-21 pri-miRNA molecule” value was “stimulate an increase in levels of the mir-21 pri-miRNA molecule; also recorded: stimulate the greatest increases in expression of the mir-21 pri-miRNA” and the “mir-21 pri-miRNA levels, dose response” value is reported as “dose-responsive induction of mir-21 pri-miRNA levels”.
On to “ISIS 358780: uniform 2′-MOE PS; targets mir-21 pri-miRNA (antisense eA*eA*e[5mC]*eA*eT*eT*eG*eG*eA*eT*eA*eT*eG*eG*eA*eT*eG*eG*eT*e[5mC])”, for which, in the data set on mir-21 pri-miRNA, the “levels of the mir-21 pri-miRNA molecule” value is listed as “stimulate an increase in levels of the mir-21 pri-miRNA molecule”.
